# Results: patent US10889564B2, “Tetrahydroindazoles and medical uses thereof” (Genase Therapeutics B.V., priority 2015, dated 2021)
# System: uridine uptake in ARN8 cells
# Assay: Tritiated uridine uptake
# Type: cell-based
# Details: 15 min preincubation, 5,6-3H-Uridine 60 sec, FIG. 7
# Experimental: ARN8 cells were incubated with increasing concentrations of nilotinib and tritiated uridine. The amount of tritium label in cells was determined by scintillation counting. 200 000 ARN8 cells/well were seeded on 6-well plates. 24 h post-seeding, the cells were rinsed twice with transport buffer, pH 7.4 (20 mM Tris/HCl, 130 mM NaCl, 3 mM K2HPO4, 1 mM MgCl2, 5 mM Glucose) and then incubated for 15 min at 37° C. with compounds (or vehicle) diluted in transport buffer. 5,6-3H-Uridine (PerkinElmer, #NET367001MC) was added to a final concentration of 4 μCi/mL for 60 sec, and then removed with 5 quick washes with 1 mM ice-cold unlabelled uridine (Sigma, #U3003). Samples (in triplicate) were harvested in 10% SDS (Sigma) and transferred to a flexible 24-well microplate (Perkin Elmer, #1450-402). Optiphase Supermix scintillation buffer (PerkinElmer, #1200-439) was added and the counts per minute measured for 3 min.
smiles,measurement,value
Cc1cn(-c2cc(NC(=O)c3ccc(C)c(Nc4nccc(-c5cccnc5)n4)c3)cc(C(F)(F)F)c2)cn1 [nilotinib],uridine uptake,blocks uridine uptake
